Test results from patent publication US7279161B2, “Factor IX/factor IXa activating antibodies and antibody derivatives” (Baxter Aktiengesellschaft, priority 1999, dated 2007).

System: FVIII deficient plasma
Assay: aPTT based one stage clotting assay in FVIII deficient plasma
Assay type: biochemical, human
Method in brief: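 Test samples preincubated 4 min with FVIII-deficient plasma and aPTT reagent (DAPTTIN or Pathromtin SL), optionally with 50 ng activated FIX; clotting started with 25 mM CaCl2. Read-out is clotting time from start to clot formation, set against FVIII, buffer or scrambled-peptide controls.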

RRREGGGYYVNWYFDRRR [A1/3]
reduction in the clotting time (Pathromtin SL, in the absence of FIXa): no reduction of the clotting time was detectable
reduction in the clotting time (Pathromtin SL, in the presence of FIXa): dose dependent reduction in the clotting time
average clotting time (Table 3A Exp. 1, DAPTTIN, 2.5 μM, 2.2 nM FIXa): 91 s
clotting time (Table 3A Exp. 1, DAPTTIN, 2.5 μM, 2.2 nM FIXa, duplicate 1): 91.1 s
clotting time (Table 3A Exp. 1, DAPTTIN, 2.5 μM, 2.2 nM FIXa, duplicate 2): 91 s
average clotting time (Table 3A Exp. 1, DAPTTIN, 2.5 μM, w/o FIXa): 105 s
clotting time (Table 3A Exp. 1, DAPTTIN, 2.5 μM, w/o FIXa, duplicate 1): 105.2 s
clotting time (Table 3A Exp. 1, DAPTTIN, 2.5 μM, w/o FIXa, duplicate 2): 104.8 s
average clotting time (Table 3A Exp. 1, DAPTTIN, 7.5 μM, 2.2 nM FIXa): 73 s
clotting time (Table 3A Exp. 1, DAPTTIN, 7.5 μM, 2.2 nM FIXa, duplicate 1): 73.1 s
clotting time (Table 3A Exp. 1, DAPTTIN, 7.5 μM, 2.2 nM FIXa, duplicate 2): 72.7 s
average clotting time (Table 3A Exp. 1, DAPTTIN, 7.5 μM, w/o FIXa): 98 s
clotting time (Table 3A Exp. 1, DAPTTIN, 7.5 μM, w/o FIXa, duplicate 1): 97.8 s
clotting time (Table 3A Exp. 1, DAPTTIN, 7.5 μM, w/o FIXa, duplicate 2): 97.9 s
average clotting time (Table 3A Exp. 1, DAPTTIN, 12.5 μM, 2.2 nM FIXa): 60 s
clotting time (Table 3A Exp. 1, DAPTTIN, 12.5 μM, 2.2 nM FIXa, duplicate 1): 60.2 s
clotting time (Table 3A Exp. 1, DAPTTIN, 12.5 μM, 2.2 nM FIXa, duplicate 2): 58.9 s
average clotting time (Table 3A Exp. 1, DAPTTIN, 12.5 μM, w/o FIXa): 80 s
clotting time (Table 3A Exp. 1, DAPTTIN, 12.5 μM, w/o FIXa, duplicate 1): 80.2 s
clotting time (Table 3A Exp. 1, DAPTTIN, 12.5 μM, w/o FIXa, duplicate 2): 80.6 s
average clotting time (Table 3A Exp. 1, DAPTTIN, 15 μM, 2.2 nM FIXa): 60 s
clotting time (Table 3A Exp. 1, DAPTTIN, 15 μM, 2.2 nM FIXa, duplicate 1): 59.3 s
clotting time (Table 3A Exp. 1, DAPTTIN, 15 μM, 2.2 nM FIXa, duplicate 2): 59.9 s
average clotting time (Table 3A Exp. 1, DAPTTIN, 15 μM, w/o FIXa): 78 s
clotting time (Table 3A Exp. 1, DAPTTIN, 15 μM, w/o FIXa, duplicate 1): 78.2 s
clotting time (Table 3A Exp. 1, DAPTTIN, 15 μM, w/o FIXa, duplicate 2): 77.1 s
average clotting time (Table 3A Exp. 2, DAPTTIN, 1.25 μM, 2.2 nM FIXa): 91 s
clotting time (Table 3A Exp. 2, DAPTTIN, 1.25 μM, 2.2 nM FIXa, duplicate 1): 90.7 s
clotting time (Table 3A Exp. 2, DAPTTIN, 1.25 μM, 2.2 nM FIXa, duplicate 2): 90.8 s
average clotting time (Table 3A Exp. 2, DAPTTIN, 1.25 μM, w/o FIXa): 109 s
clotting time (Table 3A Exp. 2, DAPTTIN, 1.25 μM, w/o FIXa, duplicate 1): 108.7 s
clotting time (Table 3A Exp. 2, DAPTTIN, 1.25 μM, w/o FIXa, duplicate 2): 109.3 s
average clotting time (Table 3A Exp. 2, DAPTTIN, 2.5 μM, 2.2 nM FIXa): 88 s
clotting time (Table 3A Exp. 2, DAPTTIN, 2.5 μM, 2.2 nM FIXa, duplicate 1): 88 s
clotting time (Table 3A Exp. 2, DAPTTIN, 2.5 μM, 2.2 nM FIXa, duplicate 2): 88.8 s
average clotting time (Table 3A Exp. 2, DAPTTIN, 2.5 μM, w/o FIXa): 110 s
clotting time (Table 3A Exp. 2, DAPTTIN, 2.5 μM, w/o FIXa, duplicate 1): 110.1 s
clotting time (Table 3A Exp. 2, DAPTTIN, 2.5 μM, w/o FIXa, duplicate 2): 108.9 s
average clotting time (Table 3A Exp. 2, DAPTTIN, 5 μM, 2.2 nM FIXa): 77 s
clotting time (Table 3A Exp. 2, DAPTTIN, 5 μM, 2.2 nM FIXa, duplicate 1): 77 s
clotting time (Table 3A Exp. 2, DAPTTIN, 5 μM, 2.2 nM FIXa, duplicate 2): 76 s
average clotting time (Table 3A Exp. 2, DAPTTIN, 5 μM, w/o FIXa): 104 s
clotting time (Table 3A Exp. 2, DAPTTIN, 5 μM, w/o FIXa, duplicate 1): 103.4 s
clotting time (Table 3A Exp. 2, DAPTTIN, 5 μM, w/o FIXa, duplicate 2): 104.8 s
average clotting time (Table 3A Exp. 2, DAPTTIN, 7.5 μM, 2.2 nM FIXa): 73 s
clotting time (Table 3A Exp. 2, DAPTTIN, 7.5 μM, 2.2 nM FIXa, duplicate 1): 71.6 s
clotting time (Table 3A Exp. 2, DAPTTIN, 7.5 μM, 2.2 nM FIXa, duplicate 2): 73.9 s
average clotting time (Table 3A Exp. 2, DAPTTIN, 7.5 μM, w/o FIXa): 100 s
clotting time (Table 3A Exp. 2, DAPTTIN, 7.5 μM, w/o FIXa, duplicate 1): 100.1 s
clotting time (Table 3A Exp. 2, DAPTTIN, 7.5 μM, w/o FIXa, duplicate 2): 100.5 s
average clotting time (Table 3A Exp. 2, DAPTTIN, 10 μM, 2.2 nM FIXa): 63 s
clotting time (Table 3A Exp. 2, DAPTTIN, 10 μM, 2.2 nM FIXa, duplicate 1): 63.1 s
clotting time (Table 3A Exp. 2, DAPTTIN, 10 μM, 2.2 nM FIXa, duplicate 2): 62.5 s
average clotting time (Table 3A Exp. 2, DAPTTIN, 10 μM, w/o FIXa): 79 s
clotting time (Table 3A Exp. 2, DAPTTIN, 10 μM, w/o FIXa, duplicate 1): 79.1 s
clotting time (Table 3A Exp. 2, DAPTTIN, 10 μM, w/o FIXa, duplicate 2): 78.5 s
average clotting time (Table 3A Exp. 2, DAPTTIN, 12.5 μM, 2.2 nM FIXa): 57 s
clotting time (Table 3A Exp. 2, DAPTTIN, 12.5 μM, 2.2 nM FIXa, duplicate 1): 56.7 s
clotting time (Table 3A Exp. 2, DAPTTIN, 12.5 μM, 2.2 nM FIXa, duplicate 2): 56.7 s
average clotting time (Table 3A Exp. 2, DAPTTIN, 12.5 μM, w/o FIXa): 85 s
clotting time (Table 3A Exp. 2, DAPTTIN, 12.5 μM, w/o FIXa, duplicate 1): 83.6 s
clotting time (Table 3A Exp. 2, DAPTTIN, 12.5 μM, w/o FIXa, duplicate 2): 85.5 s
average clotting time (Table 3B, Pathromtin SL, 1 μM, 2.2 nM FIXa): 105 s
clotting time (Table 3B, Pathromtin SL, 1 μM, 2.2 nM FIXa, duplicate 1): 103.7 s
